Laboratory results reported in patent US20230146455A1, “TREATMENT OF INFLAMMATORY DISEASES WITH PEPTIDES AND PHARMACEUTICAL COMPOSITIONS” (Yuyu Pharma, Inc., priority 2020, published 2023).
Where “and” joins values, the source holds several entries; their conditions need not be identical. Equal entries are not always repeated. Where a SMILES comes first, the peptide text is derived from it. [ ]: non-standard residue; d: D form. Hyp = O=C(O)[C@@H]1C[C@@H](O)CN1

System: TNF-alpha
Assay: Example 8 main study Luminex, LPS hPBMCs: TNF-alpha
Format: cell-based, human
Conditions: for TNF-alpha Concentration: individual replicates; for TNF-alpha Concentration (pg/ml), Mean: mean of replicates; for LPS-induced TNF-α (in words): at as low as 5 μM, LPS 5 ug/mL 24 hrs
Protocol: Human PBMCs were pretreated with YY-101, YDE-011, YDE-043 or reference compound; Xiidra® at various concentration (ranging from […] to 500 nM) for 2 h before stimulation. An equal volume of 0.5% DMSO was used as a vehicle control. Then, the cells were treated with LPS at 5 ug/ml, which was selected based on the pilot study. The supernatants from treated cells were harvested at 24 h and placed in a 96 well for Luminex cytokine & chemokine profiling using a Luminex 200 multiplex assay (Luminex; R&D system, USA).
The main study arm with triplicate wells per group in a 24-well plate: • 1. Blank • 2. PBMC: 0.5% DMSO • 3. PBMC+LPS (5 ug/ml) • 4. PBMC+YY-101 500 nM • 5. PBMC+YY-101 50 nM • 6. PBMC+YY-101 5 nM • 7. PBMC+YY-101 0.5 nM • 8. PBMC+LPS (5 ug/ml)+Xiidra® 500 nM • 9. PBMC+LPS (5 ug/ml)+Xiidra® 50 nM • 10. PBMC+LPS (5 ug/ml)+Xiidra® 5 nM • 11. PBMC+LPS (5 ug/ml)+Xiidra® 0.5 nM • 12. PBMC+LPS (5 ug/ml)+Xiidra® 0.05 nM • 13. PBMC+LPS (5 ug/ml)+Xiidra® 0.005 nM • 14. PBMC+LPS (5 ug/ml)+YY-101 500 nM • 15. PBMC+LPS (5 ug/ml)+YY-101 50 nM • 16. PBMC+LPS (5 ug/ml)+YY-101 5 nM • 17. PBMC+LPS (5 ug/ml)+YY-101 0.5 nM • 18. PBMC+LPS (5 ug/ml)+YY-101 0.05 nM • 19. PBMC+LPS (5 ug/ml)+YY-101 0.005 nM • 20. PBMC+LPS (5 ug/ml)+YDE-011 500 nM • 21. PBMC+LPS (5 ug/ml)+YDE-011 50 nM • 22. PBMC+LPS (5 ug/ml)+YDE-011 5 nM • 23. PBMC+LPS (5 ug/ml)+YDE-011 0.5 nM • 24. PBMC+LPS (5 ug/ml)+YDE-011 0.05 nM • 25. PBMC+LPS (5 ug/ml)+YDE-011 0.005 nM • 26. PBMC+LPS (5 ug/ml)+YDE-043 500 nM • 27. PBMC+LPS (5 ug/ml)+YDE-043 50 nM • 28. PBMC+LPS (5 ug/ml)+YDE-043 5 nM • 29. PBMC+LPS (5 ug/ml)+YDE-043 0.5 nM • 30. PBMC+LPS (5 ug/ml)+YDE-043 0.05 nM • 31. PBMC+LPS (5 ug/ml)+YDE-043 0.005 nM
Multiplex assay was used to measure 30 cytokines and chemokines. The 1:200 diluted cell supernatant and serial dilution of the standard were dispensed into a 96 well plate at 50 ul/well. Then, the pre-mixed cocktail of antibody-coated magnetic beads was dispensed at 50 ul/well and incubated at room temperature for 2 h in a horizontal orbital microplate shaker at 800±500 rpm. The beads were washed using a magnetic device to prevent loss. The biotin-antibody was dispensed in 50 ul of each well and incubated at room temperature for 1 h in a shaker at 800±500 rpm. After washing, streptavidin-PE was added at 50 ul/well and incubated at room temperature for 30 min in a shaker under the same conditions. Finally, after washing, wash buffer (100 ul/well) was added to the plate and incubated in a shaker for 2 min. The Luminex™ 200 setting were set according to the manufacturer's protocol. The data was calculated with a standard five-parameter logistic nonlinear regression analysis of the data (xPonent software 4.2, USA). Results were presented as concentration (ng/ml or pg/ml).

[1] = PBMC + LPS(5 ug/ml) + test article 0.005 nM
[2] = PBMC + LPS(5 ug/ml) + test article 0.05 nM
[3] = PBMC + LPS(5 ug/ml) + test article 0.5 nM
[4] = PBMC + LPS(5 ug/ml) + test article 5 nM
[5] = PBMC + LPS(5 ug/ml) + test article 50 nM
[6] = PBMC + LPS(5 ug/ml) + test article 500 nM

SMILES: CC(C)C[C@H](NC(=O)CNC(=O)[C@H](CC(C)C)NC(=O)[C@H](CCC(N)=O)NC(=O)CNC(=O)[C@@H]1C[C@@H](O)CN1)C(=O)N[C@@H](C)C(=O)NCC(=O)N1CCC[C@H]1C(=O)N[C@@H](CCCCN)C(=O)O [YDE-011] (H-[Hyp]GQLGLAGPK-OH)
- TNF-alpha Concentration [1]: 2116.1 pg/mL and 1988.8 pg/mL and 1861.0 pg/mL
- TNF-alpha Concentration (pg/ml), Mean [1]: 1988.6 pg/mL
- TNF-alpha Concentration [2]: 1861.0 pg/ml and 2052.5 pg/ml (2×)
- TNF-alpha Concentration (pg/ml), Mean [2]: 1988.7 pg/mL
- TNF-alpha Concentration [3]: 1344.6 pg/mL and 1988.8 pg/mL and 1797.0 pg/mL
- TNF-alpha Concentration (pg/ml), Mean [3]: 1710.1 pg/mL
- TNF-alpha Concentration [4]: 749.3 pg/mL and 1409.7 pg/mL and 1668.5 pg/mL
- TNF-alpha Concentration (pg/ml), Mean [4]: 1275.8 pg/mL
- TNF-alpha Concentration [5]: 1732.8 pg/mL and 2179.5 pg/mL and 442.1 pg/mL
- TNF-alpha Concentration (pg/ml), Mean [5]: 1451.5 pg/mL
- TNF-alpha Concentration [6]: 2116.1 pg/mL and 647.8 pg/mL and 1246.7 pg/mL
- TNF-alpha Concentration (pg/ml), Mean [6]: 1336.9 pg/mL
- LPS-induced TNF-α (in words): significantly reduced

SMILES: CC(C)C[C@H](NC(=O)[C@H](CCC(N)=O)NC(=O)CNC(=O)[C@@H]1C[C@@H](O)CN1)C(=O)NCC(=O)O [YDE-043] (H-[Hyp]GQLG-OH; N-terminus and C-terminus assumed)
- TNF-alpha Concentration [1]: 2052.5 pg/mL and 1797.0 pg/mL and 2306.2 pg/mL
- TNF-alpha Concentration (pg/ml), Mean [1]: 2051.9 pg/mL
- TNF-alpha Concentration [2]: 1181.1 pg/mL and 1539.4 pg/mL and 1474.6 pg/mL
- TNF-alpha Concentration (pg/ml), Mean [2]: 1398.4 pg/mL
- TNF-alpha Concentration [3]: 1764.9 pg/ml and 1409.7 pg/ml (2×)
- TNF-alpha Concentration (pg/ml), Mean [3]: 1528.1 pg/mL
- TNF-alpha Concentration [4]: 1442.2 pg/mL and 2052.5 pg/mL and 1474.6 pg/mL
- TNF-alpha Concentration (pg/ml), Mean [4]: 1656.4 pg/mL
- TNF-alpha Concentration [5]: 2020.6 pg/mL and 1797.0 pg/mL and 1474.6 pg/mL
- TNF-alpha Concentration (pg/ml), Mean [5]: 1764.1 pg/mL
- TNF-alpha Concentration [6]: 1604.0 pg/mL and 1115.3 pg/mL and 1344.6 pg/mL
- TNF-alpha Concentration (pg/ml), Mean [6]: 1354.6 pg/mL
- LPS-induced TNF-α (in words): significantly reduced

SMILES: CC(C)C[C@H](NC(=O)CNC(=O)[C@H](CC(=O)O)NC(=O)[C@H](CCC(N)=O)NC(=O)CNC(=O)[C@@H]1C[C@@H](O)CN1)C(=O)N[C@@H](C)C(=O)NCC(=O)N1CCC[C@H]1C(=O)N[C@@H](CCCCN)C(=O)O [YY-101] (H-[Hyp]GQDGLAGPK-OH; N-terminus and C-terminus assumed)
- TNF-alpha Concentration [1]: 2871.6 pg/mL and 2369.4 pg/mL and 2179.5 pg/mL
- TNF-alpha Concentration (pg/ml), Mean [1]: 2473.5 pg/mL
- TNF-alpha Concentration [2]: 1797.0 pg/mL and 2621.2 pg/mL and 2242.9 pg/mL
- TNF-alpha Concentration (pg/ml), Mean [2]: 2220.4 pg/mL
- TNF-alpha Concentration [3]: 2432.5 pg/mL and 2242.9 pg/mL and 2116.1 pg/mL
- TNF-alpha Concentration (pg/ml), Mean [3]: 2263.8 pg/mL
- TNF-alpha Concentration [4]: 1988.8 pg/mL and 1925.0 pg/mL and 2242.9 pg/mL
- TNF-alpha Concentration (pg/ml), Mean [4]: 2052.2 pg/mL
- TNF-alpha Concentration [5]: 1732.8 pg/mL and 1668.5 pg/mL and 1988.8 pg/mL
- TNF-alpha Concentration (pg/ml), Mean [5]: 1796.7 pg/mL
- TNF-alpha Concentration [6]: 2179.5 pg/mL and 1988.8 pg/mL and 1797.0 pg/mL
- TNF-alpha Concentration (pg/ml), Mean [6]: 1988.4 pg/mL
- TNF-alpha Concentration (PBMC + test article 0.5 nM, no LPS, dilution 200): <7.70 pg/mL
- TNF-alpha Concentration (PBMC + test article 5 nM, no LPS, dilution 200): <7.70 pg/mL
- TNF-alpha Concentration (PBMC + test article 0.05 uM, no LPS, dilution 200): <7.70 pg/mL
- TNF-alpha Concentration (PBMC + test article 50 nM, no LPS, dilution 200): <7.70 pg/mL
- TNF-alpha Concentration (PBMC + test article 500 nM, no LPS, dilution 200): <7.70 pg/mL
- LPS-induced TNF-α (in words): significantly reduced
